Laboratory results taken from publication PMC9870890 (Nature Communications, 2023).
Read-outs that look alike come from different tables or passages of the source.

Biological target: T1, M2R (Homo sapiens, UniProt P08172, M139L/M142L/M1T/M248L/M296L/M368L/M456T/M45L)
T1 construct: We used a full-length construct M2RFL△8 M for complexing with miniGαo and β-arrestin-1; FLAG (N); 8xHis (C); made in house; host or cells: Sf9 insect cells
T1 sequence (P08172 1-466 M1T/M45L/M139L/M142L/M248L/M296L/M368L/M456T): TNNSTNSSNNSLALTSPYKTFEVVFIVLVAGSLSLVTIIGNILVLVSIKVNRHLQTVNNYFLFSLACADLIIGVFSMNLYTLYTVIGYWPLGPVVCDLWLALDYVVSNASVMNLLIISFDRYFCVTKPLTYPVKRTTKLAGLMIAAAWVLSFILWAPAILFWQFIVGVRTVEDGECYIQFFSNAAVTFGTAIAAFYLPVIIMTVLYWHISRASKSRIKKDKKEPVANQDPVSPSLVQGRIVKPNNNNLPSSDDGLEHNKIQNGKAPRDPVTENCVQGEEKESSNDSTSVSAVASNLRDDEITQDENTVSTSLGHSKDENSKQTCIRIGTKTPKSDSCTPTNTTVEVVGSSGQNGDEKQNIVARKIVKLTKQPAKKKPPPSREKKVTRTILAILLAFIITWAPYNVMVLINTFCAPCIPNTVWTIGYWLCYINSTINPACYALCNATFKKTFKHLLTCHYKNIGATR
Assay type: biochemical
Details: for Phosphorylation intensity: 100 μM Ixo or 1 mM carbachol
Protocol: We used a full-length construct M2RFL△8 M for complexing with miniGαo and β-arrestin-1. The receptor was purified as described above for cryo-EM sample. Excess GRK2 was mixed with the M2R in a buffer composed of 20 mM HEPES pH 7.5, 100 mM NaCl, 0.01% MNG, 0.003% CHS, 500 μM ATP in the presence and absence of 100 μM Ixo or 1 mM carbachol to initiate the phosphorylation at room temperature. The extent of phosphorylation at various time points (from 0 to 120 min) was evaluated by Pro-Q and Coomassie blue staining. The final phosphorylated receptor (Ixo-bound) was further evaluated by ion-exchange chromatography. The complex formation test was performed as follows: unphosphorylated Ixo-bound M2RFL△8 M or phosphorylated M2RFL△8 M was mixed with miniGαo or β-arrestin-1, respectively and incubated on ice for 30 min. The receptor alone or mixed complex sample were then analyzed by SEC against 20 mM HEPES pH 7.5, 100 mM NaCl, 0.01% MNG, 0.003% CHS in the presence of 10 μM Ixo.

For C[N+](C)(C)CC#CCOC1=NOCC1 [Ixo, iperoxo], the Phosphorylation intensity (Time 5 min) was 4552.74, the Phosphorylation intensity (Time 10 min) was 10530.1 and the Phosphorylation intensity (Time 15 min) was 15003.3. For the same compound, the Phosphorylation intensity (Time 30 min) was 17454.3, the Phosphorylation intensity (Time 60 min) was 18635.2 and the Phosphorylation intensity (Time 120 min) was 18093.2. The “induction of GRK2-mediated phosphorylation of M2R” value (compared with carbachol) was “more efficient than carbachol”.
